Data taken from patent US20230146455A1, “TREATMENT OF INFLAMMATORY DISEASES WITH PEPTIDES AND PHARMACEUTICAL COMPOSITIONS” (Yuyu Pharma, Inc., priority 2020, published 2023).
Several values for one entry are separate records, joined by “and”; a condition that tells them apart may be missing. Equal values may be shown once. Where a SMILES comes first, the peptide text is derived from it. [ ]: non-standard residue; d: D form. Hyp = O=C(O)[C@@H]1C[C@@H](O)CN1

Test system: CCL2/JE/MCP-1
Assay: Example 9 Luminex, LPS hPBMCs: CCL2/JE/MCP-1
Assay type: cell-based, human
Method: Treatment Human PBMCs were pretreated with YY-101, YDE-011 and YDE-043 or reference compound; Xiidra® at various concentration (ranging from 1 nM to 100 uM) for 2 h before stimulation. An equal volume of 0.5% DMSO was used as a vehicle control. Then, the cells were treated with LPS at 5 ug/ml. The supernatants from treated cells were harvested at 24 h and placed in a 96 well for Luminex cytokine & chemokine profiling using a Luminex 200 multiplex assay (Luminex; R&D system, USA).
The main study arm with triplicate wells per group in a 24-well plate: • 1. Blank • 2. PBMC: 0.5% DMSO • 3. PBMC+LPS (5 ug/ml) • 4. PBMC+YY-101 100 uM • 5. PBMC+YY-101 10 uM • 6. PBMC+YY-101 1 uM • 7. PBMC+YY-101 0.1 uM • 8. PBMC+YY-101 0.01 uM • 9. PBMC+LPS (5 ug/ml)+Xiidra®100 uM • 10. PBMC+LPS (5 ug/ml)+Xiidra® 10 uM • 11. PBMC+LPS (5 ug/ml)+Xiidra® 1 uM • 12. PBMC+LPS (5 ug/ml)+Xiidra®0.1 uM • 13. PBMC+LPS (5 ug/ml)+Xiidra®0.01 uM • 14. PBMC+LPS (5 ug/ml)+Xiidra®0.001 uM • 15. PBMC+LPS (5 ug/ml)+YY-101 100 uM • 16. PBMC+LPS (5 ug/ml)+YY-101 10 uM • 17. PBMC+LPS (5 ug/ml)+YY-101 1 uM • 18. PBMC+LPS (5 ug/ml)+YY-101 0.1 uM • 19. PBMC+LPS (5 ug/ml)+YY-101 0.01 uM • 20. PBMC+LPS (5 ug/ml)+YY-101 0.001 uM • 21. PBMC+LPS (5 ug/ml)+YDE-011 100 uM • 22. PBMC+LPS (5 ug/ml)+YDE-011 10 uM • 23. PBMC+LPS (5 ug/ml)+YDE-011 1 uM • 24. PBMC+LPS (5 ug/ml)+YDE-011 0.1 uM • 25. PBMC+LPS (5 ug/ml)+YDE-011 0.01 uM • 26. PBMC+LPS (5 ug/ml)+YDE-011 0.001 uM • 27. PBMC+LPS (5 ug/ml)+YDE-043 100 uM • 28. PBMC+LPS (5 ug/ml)+YDE-043 10 uM • 29. PBMC+LPS (5 ug/ml)+YDE-043 1 uM • 30. PBMC+LPS (5 ug/ml)+YDE-043 0.1 uM • 31. PBMC+LPS (5 ug/ml)+YDE-043 0.01 uM • 32. PBMC+LPS (5 ug/ml)+YDE-043 0.001 uM
Multiplex assay was used to measure 30 cytokines and chemokines. The 1:2, 1:10 and 1:200 diluted cell supernatant and serial dilution of the standard were dispensed into a 96 well plate at 50 ul/well. Then, the pre-mixed cocktail of antibody-coated magnetic beads was dispensed at 50 ul/well and incubated at room temperature for 2 h in a horizontal orbital microplate shaker at 800±500 rpm. The beads were washed using a magnetic device to prevent loss. The biotin-antibody was dispensed in 50 ul of each well and incubated at room temperature for 1 h in a shaker at 800±500 rpm. After washing, streptavidin-PE was added at 50 ul/well and incubated at room temperature for 30 min in a shaker under the same conditions. Finally, after washing, wash buffer (100 ul/well) was added to the plate and incubated in a shaker for 2 min. The Luminex™ 200 setting were set according to the manufacturer's protocol. The data was calculated with a standard five-parameter logistic nonlinear regression analysis of the data (xPonent software 4.2, USA). The levels of cytokine/chemokine are normalized to the live cell counts (1×10^5 cells/mL) and presented as concentrations per mL (pg/mL or ng/mL).

[1] = PBMC + LPS(5 ug/ml) + test article 0.001 uM, Mean
[2] = PBMC + LPS(5 ug/ml) + test article 0.001 uM, individual replicates
[3] = PBMC + LPS(5 ug/ml) + test article 0.01 uM, Mean
[4] = PBMC + LPS(5 ug/ml) + test article 0.01 uM, individual replicates
[5] = PBMC + LPS(5 ug/ml) + test article 0.1 uM, Mean
[6] = PBMC + LPS(5 ug/ml) + test article 0.1 uM, individual replicates
[7] = PBMC + LPS(5 ug/ml) + test article 1 uM, Mean
[8] = PBMC + LPS(5 ug/ml) + test article 1 uM, individual replicates
[9] = PBMC + LPS(5 ug/ml) + test article 10 uM, Mean
[10] = PBMC + LPS(5 ug/ml) + test article 10 uM, individual replicates
[11] = PBMC + LPS(5 ug/ml) + test article 100 uM, Mean
[12] = PBMC + LPS(5 ug/ml) + test article 100 uM, individual replicates
[13] = PBMC + test article 0.01 uM, no LPS, Mean
[14] = PBMC + test article 0.01 uM, no LPS, individual replicates
[15] = PBMC + test article 0.1 uM, no LPS, Mean
[16] = PBMC + test article 0.1 uM, no LPS, individual replicates
[17] = PBMC + test article 1 uM, no LPS, Mean
[18] = PBMC + test article 1 uM, no LPS, individual replicates
[19] = PBMC + test article 10 uM, no LPS, Mean
[20] = PBMC + test article 10 uM, no LPS, individual replicates
[21] = PBMC + test article 100 uM, no LPS, Mean
[22] = PBMC + test article 100 uM, no LPS, individual replicates

CC(C)C[C@H](NC(=O)CNC(=O)[C@H](CC(=O)O)NC(=O)[C@H](CCC(N)=O)NC(=O)CNC(=O)[C@@H]1C[C@@H](O)CN1)C(=O)N[C@@H](C)C(=O)NCC(=O)N1CCC[C@H]1C(=O)N[C@@H](CCCCN)C(=O)O [YY-101] (H-[Hyp]GQDGLAGPK-OH; N-terminus and C-terminus assumed)
Concentration [1]: 3936.7 pg/mL
conc/live cell [1]: 612.8 pg/10^5
Concentration [2]: 3765.3 pg/mL and 3838.5 pg/mL and 4206.2 pg/mL
conc/live cell [2]: 660.6 pg/10^5 and 540.6 pg/10^5 and 637.3 pg/10^5
Concentration [3]: 4029.1 pg/mL
conc/live cell [3]: 653.6 pg/10^5
Concentration [4]: 4143.7 pg/mL and 4045.9 pg/mL and 3897.7 pg/mL
conc/live cell [4]: 647.5 pg/10^5 and 674.3 pg/10^5 and 639.0 pg/10^5
Concentration [5]: 3583.8 pg/mL
conc/live cell [5]: 616.4 pg/10^5
Concentration [6]: 3601.3 pg/mL and 3708.0 pg/mL and 3442.0 pg/mL
conc/live cell [6]: 580.9 pg/10^5 and 713.1 pg/10^5 and 555.2 pg/10^5
Concentration [7]: 4023.9 pg/mL
conc/live cell [7]: 619.0 pg/10^5
Concentration [8]: 3902.2 pg/mL and 3911.6 pg/mL and 4257.8 pg/mL
conc/live cell [8]: 619.4 pg/10^5 and 550.9 pg/10^5 and 686.7 pg/10^5
Concentration [9]: 3459.8 pg/mL
conc/live cell [9]: 524.3 pg/10^5
Concentration [10]: 3308.6 pg/mL and 3697.4 pg/mL and 3373.4 pg/mL
conc/live cell [10]: 551.4 pg/10^5 and 577.7 pg/10^5 and 443.9 pg/10^5
Concentration [11]: 598.6 pg/mL
conc/live cell [11]: 104.2 pg/10^5
Concentration [12]: 541.0 pg/mL and 629.1 pg/mL and 625.5 pg/mL
conc/live cell [12]: 85.9 pg/10^5 and 101.5 pg/10^5 and 125.1 pg/10^5
Concentration [13]: 3382.2 pg/mL
conc/live cell [13]: 692.4 pg/10^5
Concentration [14]: 1522.2 pg/mL and 5242.2 pg/mL
conc/live cell [14]: 292.7 pg/10^5 and 1092.1 pg/10^5
Concentration [15]: 2047.1 pg/mL
conc/live cell [15]: 389.7 pg/10^5
Concentration [16]: 1338.6 pg/mL and 2755.6 pg/mL
conc/live cell [16]: 304.2 pg/10^5 and 475.1 pg/10^5
Concentration [17]: 1790.1 pg/mL
conc/live cell [17]: 325.5 pg/10^5
Concentration [18]: 1471.3 pg/mL and 2108.8 pg/mL
conc/live cell [18]: 267.5 pg/10^5 and 383.4 pg/10^5
Concentration [19]: 7729.5 pg/mL
conc/live cell [19]: 1218.8 pg/10^5
Concentration [20]: 12584.2 pg/mL and 2874.9 pg/mL
conc/live cell [20]: 1966.3 pg/10^5 and 471.3 pg/10^5
Concentration [21]: 1095.4 pg/mL
conc/live cell [21]: 165.8 pg/10^5
Concentration [22]: 1394.1 pg/mL and 796.7 pg/mL
conc/live cell [22]: 217.8 pg/10^5 and 113.8 pg/10^5
